pIC50: −log10 of the molar value.
What was measured:
mNotch1Δ1865 = test: Western blot of NICD and mNotch1Δ1865 in transfected HeLa cell cultures; type: cell-based
Protocol: (§1) Inhibition of Notch signaling in cultured cells using a mouse-derived truncated Notch1 transgene, mNotch-ΔE [67], has been described in detail previously. Western blots for mNotchΔ1865 and NICD using 9E10 anti-c-myc monoclonal were carried out as previously described.
(§2) The effect of BMS-869780 on Notch processing was evaluated using transcriptional reporter assays and western blotting of NICD levels. HeLa cell cultures were transfected with mNotch1ΔE and CBF1-luciferase reporter constructs and treated with BMS-869780. In most replicates of this experiment, inhibition of luciferase reporter occurred with IC50 > 10 μM. […] To further evaluate the effect of BMS-869780 on Notch processing, western blots of cell cultures were carried out using mNotch1Δ1865, a truncated version of mNotch1ΔE that facilitates separation of NICD product from mNotch1 substrate on western blots. HeLa cell cultures were transfected with mNotch1Δ1865 and treated overnight with compounds before western blotting. […] Furthermore, the GSIs caused an increased level of mNotch1Δ1865 substrate, most likely due to inhibition of its turnover by γ-secretase, as previously noted by Blat et al..
(§3) (b) HeLa cell cultures were transfected with mNotchΔ1865, treated with compounds overnight, and cell extracts were evaluated by western blot using anti-c-myc-HRP conjugate. Lanes 1 and 9: DMSO (0.1%) vehicle. Lane 2: BMS-299897 at 1 μM. Lane 3: BMS-433796 at 0.3 μM. Lanes 4–8: BMS-869780 at 0.1, 0.3, 1, 3, and 10 μM, respectively.

Aβ1-40 (H4-APPsw) = test: Aβ1-40 time-resolved fluorescence immunoassay in H4-APPsw cell cultures; type: cell-based, human; settings: for pIC50: Homo sapiens, H4-APPsw cultures treated overnight
Protocol: (§4) H4-APPsw cell cultures were maintained on Dulbecco's modified Eagle's medium (DMEM) supplemented with L-glutamine (2 mM), fetal bovine serum (10%), and G418 (100 μg/mL). […] Aβ1-42 and Aβ1-40 assays, and Notch inhibition assays, were carried out as described previously. Mouse embryonic fibroblasts deficient in PS1 and PS2 (MEF dKO) were passaged twice per week in DMEM/F-12 medium, consisting of a 1 : 1 mixture of DMEM and F-12 nutrient mixture supplemented with 10% fetal bovine serum, penicillin, and streptomycin. For expression of human presenilin-1 in MEF dKO cells, the full length human presenilin-1 cDNA open reading frame was cloned between the BamHI and XhoI sites of the vector pcDNA5/FRT (Invitrogen), placing presenilin-1 expression under the control of the CMV promoter. The M146V mutated allele was introduced into the presenilin-1 expression construct by polymerase chain reaction using the oligonucleotide primers 5′-[…]-3′ and 5′-[…]-3 (QuikChange kit, Invitrogen). MEF dKO cultures were cotransfected with DNA constructs expressing APP-CTF, encoding the C-terminal 99 amino acids of APP [61] and either the human presenilin-1 or presenilin-1 M146V allele. Transfected cultures were incubated overnight at 37°C in 5% CO2 atmosphere and then harvested, resuspended in DMEM/F-12 medium, dispensed into 96-well culture plates, and incubated for 6 hours at 37°C in 5% CO2 atmosphere. Culture medium was then replaced with Ultraculture serum free medium (Lonza, Rockland, ME) with or without compounds at a range of concentrations and incubated overnight.
(§5) IC50 determinations for Aβ1-42 and Aβ1-40 in H4-APPsw cultures in 384-well format were determined using homogeneous time-resolved fluorescence immunoassays as previously described. The principle of these assays is illustrated in Figures 1(c) and 1(d). In other experiments using H4-APPsw cultures, Aβ was quantified by ELISA; for Aβ1-42 the combination of monoclonal antibodies was 26D6 and 565-HRP; for Aβ1-40 it was TSD and 26D6-HRP, and for Aβ1-x it was 4G8 and 26D6-HRP. In some experiments a novel 4-plex Aβ electrochemiluminescence immunoassay was used (Mesoscale Discovery catalog number N45ZA-1). Briefly, the 4-plex was carried out in 96-well format, with 4 separate spots of capture antibodies in each well. […] For Aβ in transiently transfected PS1/PS2 dKO fibroblasts, Aβ1-42 was quantified using an ELISA kit (WACO), and Aβ1-40 was quantified by ELISA as described above for H4-APPsw cultures. […] For the rat and mouse experiments illustrated in Figures 7 and 8, brain samples were prepared by solid phase extraction, and endogenous rat brain Aβ1-42 and Aβ1-40 were quantified by ELISA as previously described for wild type mice. […]

mNotch1ΔE = test: Notch signaling CBF1-luciferase reporter assay in HeLa cells transfected with mNotch1ΔE; type: cell-based; settings: for pIC50: HeLa, treated overnight; for mNotch1ΔE/Aβ1-42: ratio of IC50 values
Protocol: as §1, §2, §3

Aβ1-42 (H4-APPsw) = test: Aβ1-42 time-resolved fluorescence immunoassay in H4-APPsw cell cultures; type: cell-based, human; settings: H4-APPsw cultures treated overnight
Protocol: as §4, §5

| SMILES | NICD levels (mNotch1Δ1865; BMS-299897 at 1 μM, BMS-433796 at 0.3 μM) | pIC50 (Aβ1-40 (H4-APPsw)) | Notch/Aβ1-42 IC50 ratios (mNotch1ΔE; GSIs) | pIC50 (mNotch1ΔE) | mNotch1ΔE/Aβ1-42 (mNotch1ΔE) | pIC50 (Aβ1-42 (H4-APPsw); Homo sapiens) | mNotch1Δ1865 substrate levels (mNotch1Δ1865; 10 μM) | cell observation (mNotch1Δ1865; 10 μM, HeLa cultures) | NICD levels (mNotch1Δ1865; concentrations up to 3 μM) | shift in IC50 values between Aβ1-42 and Aβ1-40 (Aβ1-40 (H4-APPsw); H4-APPsw) | ratio of Notch to Aβ1-42 IC50s (mNotch1ΔE; based on IC50 >10 μM for Notch) | pIC50 (Aβ1-42 (H4-APPsw)) |
| --- | --- | --- | --- | --- | --- | --- | --- | --- | --- | --- | --- | --- |
| C[C@H](c1ccc(F)cc1CCCC(=O)O)N(c1cc(F)ccc1F)S(=O)(=O)c1ccc(Cl)cc1 [BMS-299897, reference compound] | greatly reduced NICD | 8.89 | 723 | 6.47 | 723x | 9.33 | – | – | – | – | – | – |
| COc1cc(Nc2nc3n(n2)CCCC[C@H]3c2ccc(F)cc2)ccc1-n1cnc(Cl)c1 [BMS-869780] | – | 7.62 | – | < 5.00 | >1785x | 8.25 | did not increase mNotch1Δ1865 levels | detached and dead cells | no effect on NICD levels | 4 fold | > 1785 fold | 8.29 |
